Measurements taken from the supplement of paper PMC10290057.
Counter-ions that a name gives are not always drawn.

Legend:
[1] = tested on: HCT116; test: efficacy (fitted maximal change in viability relative to DMSO control); higher = less cytotoxic (negative = loss of viability); conditions: 48 h
[2] = tested on: HCT116; test: AC50 cell viability (CellTiter-Glo); higher = less potent; conditions: 48 h
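Wherever AC50 cell viability (CellTiter-Glo) is given: HCT116 colorectal carcinoma cells screened at five concentrations per compound, luminescent viability scaled between DMSO wells and empty wells on each plate, curves fitted per compound.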
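Wherever efficacy (fitted maximal change in viability relative to DMSO control) is given: Luminescence-based viability readout, five doses per compound, normalized against on-plate DMSO and empty-well controls, followed by dose-response curve fitting for every drug.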

Structure (SMILES): CC[C@H](CO)Nc1nc(NCc2ccccc2)c2ncn(C(C)C)c2n1 [Seliciclib]
- efficacy [1]: -84.6%
- AC50 cell viability [2]: 10.5 µM

Structure (SMILES): O=C(/C=C\n1cnc(-c2cc(C(F)(F)F)cc(C(F)(F)F)c2)n1)NNc1cnccn1 [Selinexor]
- efficacy [1]: -93.1%
- AC50 cell viability [2]: 0.372 µM

Structure (SMILES): Cc1cc(F)c(C(=O)Nc2cccc(-c3nncn3C(C)C)n2)cc1-n1cnc(C2CC2)c1 [Selonsertib]
- efficacy [1]: -73.8%
- AC50 cell viability [2]: 16.6 µM

Structure (SMILES): Cn1cnc2c(F)c(Nc3ccc(Br)cc3Cl)c(C(=O)NOCCO)cc21 [Selumetinib]
- efficacy [1]: -77%
- AC50 cell viability [2]: 0.525 µM

Structure (SMILES): CN1CCN(C(=O)c2ccc3cc(CCNc4ncnc5ccc(C#N)cc45)ccc3c2)CC1 [Senexin-B]
- efficacy [1]: -72.9%
- AC50 cell viability [2]: 13.2 µM

Structure (SMILES): C=C1/C(=C/C=C2\CCCC3(C)[C@@H]([C@H](C)/C=C/C=C/C(O)(CC)CC)CC[C@@H]23)C[C@@H](O)C[C@@H]1O (stereo partly specified) [Seocalcitol]
- efficacy [1]: -31.2%
- AC50 cell viability [2]: 18.6 µM

Structure (SMILES): COCCn1c2c([n+](Cc3cnccn3)c1C)C(=O)c1ccccc1C2=O [Sepantronium bromide]
- efficacy [1]: -93.8%
- AC50 cell viability [2]: 0.00833 µM

Structure (SMILES): Nc1nc2cc(-c3ccc4ncc(C(=O)N5CCOCC5)n4c3)ccc2o1 [Serabelisib]
- efficacy [1]: -53.2%
- AC50 cell viability [2]: 4.68 µM

Structure (SMILES): c1ccc2c(CCNc3ccc(Nc4ccncc4)cc3)c[nH]c2c1 [Serdemetan]
- efficacy [1]: -89.6%
- AC50 cell viability [2]: 5.9 µM

Structure (SMILES): CN[C@H]1CC[C@@H](c2ccc(Cl)c(Cl)c2)c2ccccc21 [Sertraline hydrochloride]
- efficacy [1]: -98.8%
- AC50 cell viability [2]: 20.9 µM

Structure (SMILES): O=C(O)c1ccc2c(c1)nc(Nc1cccc(Cl)c1)c1ccncc12 [Silmitasertib]
- efficacy [1]: -87.1%
- AC50 cell viability [2]: 5.9 µM

Structure (SMILES): CN1CCN(c2ncc(-c3cc(Cl)cc(Cl)c3Cl)c(N)n2)CC1 [Sipatrigine]
- efficacy [1]: -74.6%
- AC50 cell viability [2]: 18.6 µM

Structure (SMILES): COCCNCc1ccc(-c2cc3nccc(Oc4ccc(NC(=O)C5(C(=O)Nc6ccc(F)cc6)CC5)cc4F)c3s2)nc1 [Sitravatinib]
- efficacy [1]: -104%
- AC50 cell viability [2]: 6.61 µM

Structure (SMILES): Cc1c(C(=O)Nc2ccc(N3C[C@@H](C)O[C@@H](C)C3)nc2)cccc1-c1ccc(OC(F)(F)F)cc1 [Sonidegib]
- efficacy [1]: -74.9%
- AC50 cell viability [2]: 20.9 µM

Structure (SMILES): CNC(=O)c1cc(Oc2ccc(NC(=O)Nc3ccc(Cl)c(C(F)(F)F)c3)cc2)ccn1 [Sorafenib]
- efficacy [1]: -95%
- AC50 cell viability [2]: 9.34 µM

Structure (SMILES): CN1CCN(CC1)C2=NC3=C(C=CC=C3)C(=N2)C/4=C(/C(=O)NC4=O)C5=C[NH]C6=C5C=CC=C6 [Sotrastaurin]
- efficacy [1]: -83.5%
- AC50 cell viability [2]: 23.5 µM

Structure (SMILES): Fc1ccc(CNc2ncnc3ccc(F)cc23)cc1 [Spautin-1]
- efficacy [1]: -34.2%
- AC50 cell viability [2]: 1.48 µM

Structure (SMILES): C=CC(=O)Nc1cccc(Nc2nc(Nc3ccc(OCCOC)cc3)ncc2F)c1 [Spebrutinib (AVL-292)]
- efficacy [1]: -107%
- AC50 cell viability [2]: 14.8 µM

Structure (SMILES): NCCCCNCCCN [Spermidine]
- efficacy [1]: -78.6%
- AC50 cell viability [2]: 23.5 µM

Structure (SMILES): CO[C@@H]1C(N(C)C(=O)c2ccccc2)C[C@H]2O[C@]1(C)n1c3ccccc3c3c4c(c5c6ccccc6n2c5c31)C(=O)NC4=O (stereo partly specified) [Stauprimide]
- efficacy [1]: -50%
- AC50 cell viability [2]: 1.66 µM

Structure (SMILES): CN[C@@H]1C[C@H]2O[C@@](C)([C@@H]1OC)n1c3ccccc3c3c4c(c5c6ccccc6n2c5c31)C(=O)NC4 [Staurosporine]
- efficacy [1]: -89.4%
- AC50 cell viability [2]: 0.0468 µM

Structure (SMILES): CC(C)n1cnc2c(NCCc3ccc(O)cc3)nc(-c3csc4ccccc34)nc21 [StemRegenin 1]
- efficacy [1]: -91.3%
- AC50 cell viability [2]: 18.6 µM

Structure (SMILES): C[C@@H]1O[C@@H](O[C@H]2C[C@@H](O)[C@]3(CO)[C@H]4[C@H](O)C[C@]5(C)[C@H](CC[C@]5(O)[C@@H]4CC[C@]3(O)C2)C/6=C/C(=O)OC6)[C@H](O)[C@H](O)[C@H]1O [Strophantine octahydrate]
- efficacy [1]: -75.8%
- AC50 cell viability [2]: 0.0263 µM

Structure (SMILES): CONC(=O)Nc1ccc(-c2sc3c(c2CN(C)Cc2ccccc2)c(=O)n(-c2ccccc2)c(=O)n3Cc2c(F)cccc2F)cc1 [Sufugolix]
- efficacy [1]: -35.8%
- AC50 cell viability [2]: 16.6 µM

Structure (SMILES): Cc1cc2cc(Oc3ccnc(Nc4cccc(C[S+](=O)([O-])NCCN(C)C)c4)n3)ccc2[nH]1 [Sulfatinib]
- efficacy [1]: -101%
- AC50 cell viability [2]: 11.8 µM

Structure (SMILES): CCN(CC)CCNC(=O)c1c(C)[nH]c(/C=C2\C(=O)Nc3ccc(F)cc32)c1C [Sunitinib malate]
- efficacy [1]: -98.2%
- AC50 cell viability [2]: 3.32 µM

Structure (SMILES): Fc1ccc(-c2nc(-c3ccccc3F)[nH]c2-c2ccncc2)cc1 [TA02]
- efficacy [1]: -48.4%
- AC50 cell viability [2]: 16.6 µM

Structure (SMILES): COc1cc(N2CCC(N3CCN(C)CC3)CC2)ccc1Nc1ncc(Cl)c(Nc2ccccc2[S+](=O)([O-])C(C)C)n1 [TAE-684]
- efficacy [1]: -110%
- AC50 cell viability [2]: 1.18 µM
